{
  "source": "patent US20040106838A1",
  "about": "“Use of ionic liquids to separate diolefins” (NOVA Chemicals (International) S.A., priority 2002, published 2004)",
  "key": {"[1]": {"test": "C5 hydrocarbon solubility in bmim+ BF4− ionic liquid", "procedure": "The testing apparatus consisted of a flat-bottomed florence flask with a graduated neck. The flask was charged with 75 mL of bmim^+ BF4^−, the level being recorded. A known quantity of a C5 hydrocarbon was then added to the flask and the flask was sealed. The overall liquid level and the location of the liquid-liquid interfacial meniscus were recorded. The mixture was then agitated to contact the two liquids and the two phases were allowed to separate. The locations of all meniscuses were then recorded. Agitation and phase separation was then repeated until the liquid levels remained unchanged. The volume change of the hydrocarbon phase corresponds to the quantity of hydrocarbon dissolved in the ionic liquid. The testing was conducted at ambient temperature."}, "[2]": {"test": "Liquid-liquid extraction of butadiene from mixed C4 by bmim+ BF4− ionic liquid", "format": "physicochemical", "conditions": "room temperature", "source_text": "The testing apparatus consists of three sample cylinders (150 cc, 10 cc, and 50 cc) connected by ⅜-inch tubing (in the order listed) with valves allowing for isolation of each cylinder. A gas syringe is used to take C4 samples for GC analysis. Various mixed C4S were used which contained varying quantities of 1,3-butadiene (ranging from 15-85 weight %). The composition range of the non-butadiene fraction of the standards was (in weight %) n-butane 29-33%, 1-butene 20-33%, isobutene 0-36%, trans-2-butene 7-17%, and cis-2-butene 5-17%.\nTo measure C4 extraction, 40 mL of bmim^+ BF4^− absorbent is loaded into the 150 cc cylinder and the 10 cc and 150 cc cylinders are then evacuated. The 10 cc cylinder is then isolated and charged with mixed C4 liquid. This liquid is then added to the 150 cc cylinder. The 10 cc cylinder is then isolated and a second 10 cc is then added to the and subsequently added to the 150 cc cylinder and the 150 cc cylinder is isolated. The apparatus is then agitated to maximize contact between the C4 and ionic liquid phases within the 150 cc cylinder. Following agitation, the liquid is allowed to sit 12 hours to allow the two liquid phases to separate.\nTo determine the level and composition of C4 in the ionic liquid, a 10 cc sample of ionic liquid from the 150 cc cylinder is charged into the 10 cc cylinder. The 150 cc cylinder is then isolated and the 10 cc ionic liquid sample is charged to the 50 cc cylinder, which is then isolated. The 50 cc cylinder is then heated and the gas syringe is used to collect C4 gas evolving from the ionic liquid. The collected gas is analyzed by GC.\nThese pseudo-equilibrium extraction experiments conducted for different butadiene concentrations yielded enhanced concentrations of butadiene in the C4 extracted by the ionic liquid."}, "[3]": {"conditions": "in 1-butyl-3-methylimidazolium tetrafluoroborate (bmim+ BF4−), ambient temperature"}, "[4]": {"conditions": "solubility in bmim+ BF4−, ambient temperature"}},
  "note": "Where two headings read alike, the source gives them in different places.",
  "data": [
    {"smiles": "CC=C(C)C", "note": "[2-Methyl-2-Butene, 2-methyl-2-butene]", "values": [
      {"measurement": "Solubility (mol C5/L Ionic Liquid)", "setting": "[1]; [3]", "value": 0.360, "unit": "mol C5/L Ionic Liquid"},
      {"measurement": "Selectivity Over Isopentane", "setting": "[1]; [4]", "value": 10.6}
    ]},
    {"smiles": "C=CC=C", "note": "[Butadiene, 1,3-butadiene]", "values": [
      {"measurement": "Butadiene Concentration in Extracted C4 (wt %)", "setting": "[2]; Butadiene Concentration in Feed 15 wt %", "value": 37.6, "unit": "wt %"},
      {"measurement": "Butadiene Concentration in Extracted C4 (wt %)", "setting": "[2]; Butadiene Concentration in Feed 30 wt %", "value": 43.3, "unit": "wt %"},
      {"measurement": "Butadiene Concentration in Extracted C4 (wt %)", "setting": "[2]; Butadiene Concentration in Feed 50 wt %", "value": 74.1, "unit": "wt %"},
      {"measurement": "Butadiene Concentration in Extracted C4 (wt %)", "setting": "[2]; Butadiene Concentration in Feed 70 wt %", "value": 82.0, "unit": "wt %"},
      {"measurement": "Butadiene Concentration in Extracted C4 (wt %)", "setting": "[2]; Butadiene Concentration in Feed 85 wt %", "value": 91.8, "unit": "wt %"}
    ]},
    {"smiles": "CCC(C)C", "note": "[Isopentane, isopentane]", "values": [
      {"measurement": "Solubility (mol C5/L Ionic Liquid)", "setting": "[1]", "value": 0.034, "unit": "mol C5/L Ionic Liquid"}
    ]},
    {"smiles": "C=CC(=C)C", "note": "[Isoprene, isoprene]", "values": [
      {"measurement": "Solubility (mol C5/L Ionic Liquid)", "setting": "[1]; [3]", "value": 0.611, "unit": "mol C5/L Ionic Liquid"},
      {"measurement": "Selectivity Over 2-Methyl-2-Butene", "setting": "[1]; [4]", "value": 1.7},
      {"measurement": "Selectivity Over Isopentane", "setting": "[1]; [4]", "value": 18.0}
    ]}
  ]
}
